In patent US20230357179A1, “RAF KINASE INHIBITORS AND METHODS OF USE THEREOF” (Deciphera Pharmaceuticals, LLC, priority 2021, published 2023):

Experiments:
C-Raf kinase = target: T1, C-Raf kinase (Homo sapiens, UniProt P04049, Y340D/Y341D); experiment: Biochemical assay for C-Raf.1 (coupled pyruvate kinase/lactate dehydrogenase); conditions: read-out: CRAF.1 IC50
T1 construct: Y340D,; GST (N); purchased Sigma
How it was run: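 C-Raf (0.43 nM) with MEK 30.1 nM and 1 mM ATP in Tris pH 7.5/MgCl2 buffer, activity coupled via PK/LDH to NADH oxidation (A340), 6 h at 30° C. Rates from 4–5 h window converted to % inhibition versus controls; IC50 by four-parameter fit, 1% DMSO.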

A375 cells = experiment: A375 cell proliferation assay (1), resazurin, 96-well; format: cell-based; conditions: Homo sapiens, A-375, inhibition of cell proliferation
How it was run: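 Viability was read by resazurin fluorescence at 540 nm excitation and 600 nm emission, using a 440 μM solution added for 5–6 h at the end of culture. IC50 came from the curve fit.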

Miapaca-2 cells = experiment: MiaPaca-2 cell proliferation assay (1), resazurin, 96-well; format: cell-based; conditions: Homo sapiens, MIA PaCa-2, inhibition of cell proliferation
Method: MiaPaca-2 Cell Proliferation Assay (1)
Miapaca-2 cells (catalog #CRL-1420) are obtained from the American Type Culture Collect (ATTC, Manassas, VA). Briefly, cells were grown in DMEM supplemented with 10% characterized fetal bovine serum (Invitrogen, Carlsbad, CA), 2.5% New Zealand sourced horse serum and 1% Penicillin/Streptomycin/L-Glutamine at 37° C., 5% CO2, and 95% humidity. Cells are expanded until reaching 70-95% confluency at which point they are subcultured or harvested for assay use. A serial dilution of test compound is dispensed into a 96-well black clear bottom plate in triplicate. Three thousand cells are added per well in 200 μL complete growth medium in the 96-well plate. Plates are incubated for 67-72 hours at 37° C., 5% CO2, and 95% humidity. At the end of the incubation, 40 μL of a 440 μM solution of resazurin (Sigma, St. Louis, MO) in PBS is added to each well of the plate and plates are incubated for an additional 5-6 hours at 37° C., 5% CO2, and 95% humidity. Plates are read on a Synergy2 or equivalent reader (Biotek, Winooski VT) using an excitation of 540 nm and an emission of 600 nm. Data is analyzed using Prism software (GraphPad, San Diego, CA) to calculate IC50 values.

T1 sequence (P04049 307-648 Y340D/Y341D): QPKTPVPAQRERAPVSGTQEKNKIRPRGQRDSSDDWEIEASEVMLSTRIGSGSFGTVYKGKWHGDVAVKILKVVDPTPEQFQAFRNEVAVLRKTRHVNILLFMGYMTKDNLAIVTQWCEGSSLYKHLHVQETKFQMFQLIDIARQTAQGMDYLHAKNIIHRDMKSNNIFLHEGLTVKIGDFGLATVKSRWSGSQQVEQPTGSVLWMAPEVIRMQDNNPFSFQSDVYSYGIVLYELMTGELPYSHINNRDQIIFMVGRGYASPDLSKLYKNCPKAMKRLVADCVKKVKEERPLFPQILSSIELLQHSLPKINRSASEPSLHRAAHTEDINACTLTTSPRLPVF

Compound	IC50 (C-Raf kinase)	IC50 (A375 cells)	IC50 (Miapaca-2 cells)
COC(=O)Nc1cc(-c2cnnc(-c3cc(NC(=O)NCCC(C)(C)OC)c(F)cc3C)c2)ccn1 [Example 140]	100 to 500 nM	1000 to 10000 nM	1000 to 10000 nM
COC(=O)Nc1cc(-c2cnnc(-c3cc(NC(=O)NCCC(C)(C)F)c(F)cc3C)c2)ccn1 [Example 141]	≤ 100 nM	1000 to 10000 nM	1000 to 10000 nM
COC(C)(C)CCNC(=O)Nc1cc(-c2cc(-c3ccnc(NC(=O)C4CC4)c3)cnn2)c(C)cc1F [Example 142]	≤ 100 nM	1000 to 10000 nM	1000 to 10000 nM
COC(=O)Nc1cc(-c2nccc(-c3cc(NC(=O)NCCC4(OC)CC4)cnc3C)n2)ccn1 [Example 143]	100 to 500 nM	1000 to 10000 nM	1000 to 10000 nM
COC(=O)Nc1cc(-c2cc(-c3cc(NC(=O)NCCC4(OC)CC4)c(F)cc3C)ccn2)ccn1 [Example 145]	≤ 100 nM	1000 to 10000 nM	1000 to 10000 nM
COC(=O)Nc1cc(-c2nccc(-c3cc(NC(=O)NCCC4(OC)CC4)c(F)cc3C)n2)ccn1 [Example 146]	≤ 100 nM	1000 to 10000 nM	1000 to 10000 nM
COC(=O)Nc1cc(-c2nccc(-c3cc(NC(=O)NCCC(C)(C)F)c(F)cc3C)n2)ccn1 [Example 147]	≤ 100 nM	1000 to 10000 nM	1000 to 10000 nM
COC[C@@H]1CCN(C(=O)Nc2cc(-c3cc(-c4ccnc(NC(=O)OC)c4)cnn3)c(C)cc2F)C1 [Example 149]	500 to 1000 nM	1000 to 10000 nM	–
COC(=O)Nc1cc(-c2cc(-c3cc(NC(=O)NCCC4(C)CC4)cnc3C)cc(OCCO)n2)ccn1 [Example 151]	≤ 100 nM	1000 to 10000 nM	–
COC[C@H]1CCN(C(=O)Nc2cnc(C)c(-c3cc(OCCO)nc(-c4ccnc(NC(=O)OC)c4)c3)c2)C1 [Example 152]	100 to 500 nM	1000 to 10000 nM	–
COC(=O)Nc1cc(-c2cnnc(-c3cc(NC(=O)NCCC(C)(C)OC)cnc3C)c2)ccn1 [Example 153]	500 to 1000 nM	1000 to 10000 nM	–
CNC(=O)c1cc(-c2cnnc(-c3cc(NC(=O)NCCC(C)(C)OC)cnc3C)c2)ccn1 [Example 154]	> 1000 nM	1000 to 10000 nM	–
COC(=O)Nc1cc(-c2cc(-c3cc(NC(=O)NCCC4COC4)c(F)cc3C)cc(OCCO)n2)ccn1 [Example 155]	≤ 100 nM	1000 to 10000 nM	–
COC(=O)Nc1cc(-c2cc(-c3cc(NC(=O)N[C@H]4C[C@](C)(F)C4)cnc3C)cc(OCCO)n2)ccn1 [Example 157]	≤ 100 nM	1000 to 10000 nM	–
Cc1cc(F)c(NC(=O)NCCC(C)(C)F)cc1-c1ccnc(-c2ccnc(NC(=O)C3CC3)c2)c1 [Example 159]	≤ 100 nM	1000 to 10000 nM	–
COC[C@@H]1CCN(C(=O)Nc2cnc(C)c(-c3cc(OCCO)nc(-c4ccnc(NC(=O)OC)c4)c3)c2)C1 [Example 160]	100 to 500 nM	1000 to 10000 nM	–
COC(C)(C)CCNC(=O)Nc1cc(-c2ccnc(-c3ccnc(NC(=O)C4CC4)c3)c2)c(F)cc1F [Example 162]	≤ 100 nM	1000 to 10000 nM	–
COC(=O)Nc1cc(-c2cc(-c3cc(NC(=O)NCCC(C)(C)OC)c(F)cc3F)ccn2)ccn1 [Example 163]	100 to 500 nM	1000 to 10000 nM	–
CNC(=O)c1cc(-c2cc(-c3cc(NC(=O)NCCC4(C)CC4)c(F)cc3C)cc(OCCO)n2)ccn1 [Example 164]	≤ 100 nM	≤ 100 nM	–
COC(=O)Nc1cc(-c2cc(-c3cc(NC(=O)N4CCC(C)(C)CC4)cnc3C)cc(OCCO)n2)ccn1 [Example 166]	≤ 100 nM	1000 to 10000 nM	–
Cc1cc(F)c(NC(=O)NC2CC(C)(C)C2)cc1-c1cc(OCCO)nc(-c2ccnc(NC(=O)C3CC3)c2)n1 [Example 167]	≤ 100 nM	≤ 100 nM	–
Cc1cc(F)c(NC(=O)NCCC2(C)CC2)cc1-c1cnnc(-c2ccnc(NC(=O)C3CC3)c2)c1 [Example 168]	≤ 100 nM	100 to 500 nM	–
Cc1ncc(NC(=O)NCCC2(C)CC2)cc1-c1ccnc(-c2ccnc(NC(=O)C3(C#N)CC3)c2)c1 [Example 169]	≤ 100 nM	1000 to 10000 nM	–
COC(=O)Nc1cc(-c2ccnc(-c3cc(NC(=O)NCCC(C)(C)OC)c(F)cc3C)n2)ccn1 [Example 171]	≤ 100 nM	1000 to 10000 nM	–
Cc1ncc(NC(=O)NCCN2CCC2)cc1-c1cc(OCCO)nc(-c2ccnc(NC(=O)C3CC3)c2)c1 [Example 172]	> 1000 nM	1000 to 10000 nM	–
